Results published in article PMC8759731, “Design, synthesis, and evaluation of novel coumarin-dithiocarbamate derivatives (IDs) as anti-colorectal cancer agents” (Journal of Enzyme Inhibition and Medicinal Chemistry, 2021).

Experiments:
BRD4 (BD2) = molecular target: T1, BRD4 (BD2) (Homo sapiens, UniProt O60885); test: HTRF assay BRD4 (BD2); format: binding; conditions: read-out: Inhibitory rate at 10 μM, BRD4 (BD2)
T1 construct: purchased Reaction Biology Corp. RD-11-158
Description: (§1) In brief, compounds were serially diluted in Echo plate according to the plate map and DMSO’s final fraction is 0.1%. Then, transferring compounds and DMSO to 384-well assay plate by Echo. After that, 2× Protein and Peptide Mix was added to the assay plate and 2× Detection Mix was then added to assay plate and shook for 30 s. After incubating the plate at room temperature for 1.5 h, the HTRF signals (Excitation wavelength at 340 nm, Emission wavelength at 615 & 665 nm) was read on EnVision (PerkinElmer, UK). (+)-JQ1 (BPS Bioscience, Cat. No. 27402) was used as a positive control. BRD4-1 (RD-11–157) and BRD4-2 (RD-11–158) were purchased from Reaction Biology Corp. (PENN, USA). For Curve fitting, the inhibition values was calculated in Excel using Equation (1): Inhibition %=(Max-Signal)/(Max-Min)*100, and the IC50 values was calculated in XL-Fit using Equation (2): Y = Bottom + (Top-Bottom)/(1+(IC50/X)[…]), Y is %inhibition and X is compound concentration.

BRD4 (BD1) = molecular target: T2, BRD4 (BD1) (Homo sapiens, UniProt O60885); test: HTRF assay BRD4 (BD1); format: binding; conditions: 10 μM, read-out: Inhibitory rate at 10 μM, BRD4 (BD1)
T2 construct: purchased Reaction Biology Corp. RD-11-157
Description: as §1

[1] = MTS cell viability assay, NCM460 normal colon epithelial cells; format: cell-based, human; conditions: human, NCM460 normal colon epithelial cells, 10 μM
From the text: (§2) Human colorectal cancer cell lines including RKO, SW620 and SW480 were purchased from Chinese Academy of Sciences, a typical cell library culture preservation committee (Shanghai, China). Normal human colon epithelial cell line NCM460 was purchased from ATCC (Washington, DC, USA). RPMI-1640 medium (12633020), foetal bovine serum (FBS, 26170043), penicillin-streptomycin (10378016) and phosphate buffered saline (PBS, 70011044) were purchased from Gibco (Eggenstein, Germany). 5-Fluorouracil (5-FU, E0201010050, purity ≥98%) was purchased from Energy Chemical (Shanghai, China). Dimethyl sulfoxide (DMSO, 41639) was obtained from Sigma-Aldrich (St. Louis, MO). 3–(4,5-dimethylthiazol-2-yl)-5–(3-carboxymethoxyphenyl)-2–(4-sulfophenyl)-2H-tetrazolium (MTS, G1111) was purchased from Promega (Madison, WI, USA). All cell lines were cultured in RPMI-1640 medium supplemented with 10% FBS, penicillin (100 units/mL) and streptomycin ([…]) at 37 °C in a humidified atmosphere containing 5% CO2.
(§3) Cell viability was measured via MTS assay. RKO, SW620, SW480 and NCM460 cells were seeded in 96-well plates at a density of 5000 cells per well for 24 h. After treatment with the test compounds at indicated concentration for another 48 h or 72 h at 37 °C, MTS solution was added to each well and incubated for another 30 min at 37 °C. Then, the absorbance at 490 nm was measured by a BioTek Synergy H4 microplate Reader (Vermont, USA). The IC50 values were calculated with Graphpad 7.0 software packages.

SW480 cells = test: MTS cell viability assay, SW480 cells; format: cell-based; conditions: Homo sapiens, 10 μM, 72 h
From the text: as §2, §3

RKO cells = test: MTS cell viability assay, RKO cells; format: cell-based; conditions: Homo sapiens, 10 μM, 72 h
From the text: as §2, §3

SW620 cells = test: MTS cell viability assay, SW620 cells; format: cell-based; conditions: Homo sapiens, SW-620, 10 μM, 72 h
From the text: as §2, §3

Row | SMILES | inhibition at 10 µM (BRD4 (BD2)) | melting point | inhibition at 10 µM (BRD4 (BD1)) | viability at 48 h, 10 µM [1] | viability at 10 µM (SW480 cells) | viability at 10 µM (RKO cells) | viability at 10 µM (SW620 cells)
1 | CC(C)(C)N1CCN(C(=S)SCc2ccc3oc(=O)ccc3c2)CC1 [ID-14, (2-Oxo-2H-chromen-6-yl)methyl 4-(tert-butyl)piperazine-1-carbodithioate] | 16.6% | 159.4 to 160.3 °C | 12.8% | – | – | – | –
2 | O=c1ccc2cc(CSC(=S)N3CCOCC3)ccc2o1 [ID-10, (2-Oxo-2H-chromen-6-yl)methyl morpholine-4-carbodithioate] | 19.6% | 135.4 to 136.3 °C | 27.2% | – | – | – | –
3 | O=c1ccc2cc(CSC(=S)N3CCN(C4CCCCC4)CC3)ccc2o1 [ID-16, (2-Oxo-2H-chromen-6-yl)methyl 4-cyclohexylpiperazine-1-carbodithioate] | 12.9% | 106.9 to 107.8 °C | 20.1% | – | – | – | –
4 | O=c1ccc2cc(CSC(=S)N3CCN(c4ccc(O)cc4)CC3)ccc2o1 [ID-17, (2-Oxo-2H-chromen-6-yl)methyl 4–(4-hydroxyphenyl)piperazine-1-carbodithioate] | 27.7% | 195.5 to 196.4 °C | 39% | – | – | – | –
5 | CN1CCN(C(=S)SCc2ccc3oc(=O)ccc3c2)CC1 [ID-12, (2-Oxo-2H-chromen-6-yl)methyl 4-methylpiperazine-1-carbodithioate] | 26.5% | 124.3 to 125.2 °C | 35.5% | – | – | – | –
6 | CN1CCN(C2CCN(C(=S)SCc3ccc4oc(=O)ccc4c3)CC2)CC1 [ID-20, (2-Oxo-2H-chromen-6-yl)methyl 4–(4-methylpiperazin-1-yl)piperidine-1-carbodithioate] | 29.3% | 95 to 96 °C | 36.6% | – | – | – | –
7 | O=c1ccc2cc(CSC(=S)N3CCC(c4ccccc4)CC3)ccc2o1 [ID-19, (2-Oxo-2H-chromen-6-yl)methyl 4-phenylpiperidine-1-carbodithioate] | 3.2% | 115.6 to 116.5 °C | 6.5% | – | – | – | –
8 | O=c1ccc2cc(CSC(=S)N3CCN(CCO)CC3)ccc2o1 [ID-15, (2-Oxo-2H-chromen-6-yl)methyl 4–(2-hydroxyethyl)piperazine-1-carbodithioate] | 33.3% | 120.9 to 121.8 °C | 40.2% | – | – | – | –
9 | O=c1[nH]cc(F)c(=O)[nH]1 [5-FU, 5-Fluorouracil, reference compound] | – | – | – | 80.4% | 43.9% | 40.7% | 33.6%
10 | O=c1ccc2cc(CSC(=S)N3CCCCCC3)ccc2o1 [ID-9, (2-Oxo-2H-chromen-6-yl)methyl azepane-1-carbodithioate] | 5% | 72.6 to 73.5 °C | 6.3% | – | – | – | –
11 | N#Cc1ccc(N2CCN(C(=S)SCc3ccc4oc(=O)ccc4c3)CC2)cc1 [ID-18, (2-Oxo-2H-chromen-6-yl)methyl 4–(4-cyanophenyl)piperazine-1-carbodithioate] | 8.4% | 181.5 to 182.4 °C | 11.8% | – | – | – | –
12 | CC(C)N1CCN(C(=S)SCc2ccc3oc(=O)ccc3c2)CC1 [ID-13, (2-Oxo-2H-chromen-6-yl)methyl 4-isopropylpiperazine-1-carbodithioate] | 10.8% | 73.6 to 74.5 °C | 14.4% | – | – | – | –
13 | O=c1ccc2cc(CSC(=S)N3CCCCC3)ccc2o1 [ID-8, (2-Oxo-2H-chromen-6-yl)methyl piperidine-1-carbodithioate] | 8.2% | 130.1 to 131 °C | 7.8% | – | – | – | –

Further lines, with some results ahead:

Row | inhibition at 10 µM (BRD4 (BD2)) | melting point | inhibition at 10 µM (BRD4 (BD1)) | SMILES | viability at 48 h, 10 µM [1] | viability at 10 µM (SW480 cells) | viability at 10 µM (RKO cells) | viability at 10 µM (SW620 cells)
14 | 8.7% | 137.8 to 138.7 °C | 15% | O=c1ccc2cc(CSC(=S)N3CC(O)C3)ccc2o1 [ID-6, (2-Oxo-2H-chromen-6-yl)methyl 3-hydroxyazetidine-1-carbodithioate] | – | – | – | –
15 | 1.5% | 151.6 to 152.5 °C | 2.2% | CN(C)C(=S)SCc1ccc2oc(=O)ccc2c1 [ID-1, (2-Oxo-2H-chromen-6-yl)methyl dimethylcarbamodithioate] | – | – | – | –
16 | 5.1% | 100.1 to 101 °C | 4.3% | CCN(CC)C(=S)SCc1ccc2oc(=O)ccc2c1 [ID-2, (2-Oxo-2H-chromen-6-yl)methyl diethylcarbamodithioate] | – | – | – | –
17 | 7.1% | 110.2 to 111.1 °C | 9.2% | O=c1ccc2cc(CSC(=S)N3CCCC3)ccc2o1 [ID-7, (2-Oxo-2H-chromen-6-yl)methyl pyrrolidine-1-carbodithioate] | – | – | – | –
18 | 5.8% | 144 to 145 °C | 6.2% | O=c1ccc2cc(CSC(=S)N3CCC3)ccc2o1 [ID-5, (2-Oxo-2H-chromen-6-yl)methyl azetidine-1-carbodithioate] | – | – | – | –
19 | 3.1% | – | 4.2% | CCCCN(CCCC)C(=S)SCc1ccc2oc(=O)ccc2c1 [ID-4, (2-Oxo-2H-chromen-6-yl)methyl dibutylcarbamodithioate] | – | – | – | –
20 | 3.3% | 52.3 to 53.2 °C | 1.6% | CCCN(CCC)C(=S)SCc1ccc2oc(=O)ccc2c1 [ID-3, (2-Oxo-2H-chromen-6-yl)methyl dipropylcarbamodithioate] | – | – | – | –
